We go through 9 compounds from ChEMBL document CHEMBL1155466, “Structure-activity relationships of 6-methyl-benzo[b]thiophene-2-carboxylic acid (1-[(S)-1-benzyl-4-[4-(tetrahydropyran-4-ylmethyl)piperazin-1-yl]butylcarbamoyl]cyclopentyl)amide, potent antagonist of the neurokinin-2 receptor” (J Med Chem, 2010).

Series [1] deals with T1, Substance-K receptor (Homo sapiens, UniProt P21452).
T1 sequence (P21452 whole entry): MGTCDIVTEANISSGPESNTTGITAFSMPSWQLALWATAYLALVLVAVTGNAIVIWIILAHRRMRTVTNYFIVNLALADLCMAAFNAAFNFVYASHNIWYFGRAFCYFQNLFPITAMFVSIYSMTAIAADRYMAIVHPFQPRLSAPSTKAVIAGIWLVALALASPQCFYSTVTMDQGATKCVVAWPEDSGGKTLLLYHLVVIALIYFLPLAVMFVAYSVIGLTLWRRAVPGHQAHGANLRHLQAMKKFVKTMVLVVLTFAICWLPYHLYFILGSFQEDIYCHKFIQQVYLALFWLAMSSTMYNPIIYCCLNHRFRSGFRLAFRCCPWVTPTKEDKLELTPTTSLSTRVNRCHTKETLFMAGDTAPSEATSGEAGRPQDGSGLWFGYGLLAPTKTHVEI
As to the kind of experiment: Displacement of [3H]neurokinin A from human NK2 receptor.

Series [2] has as its target T2, Substance-K receptor (Cavia porcellus) (UniProt Q64077).
T2 sequence (whole entry): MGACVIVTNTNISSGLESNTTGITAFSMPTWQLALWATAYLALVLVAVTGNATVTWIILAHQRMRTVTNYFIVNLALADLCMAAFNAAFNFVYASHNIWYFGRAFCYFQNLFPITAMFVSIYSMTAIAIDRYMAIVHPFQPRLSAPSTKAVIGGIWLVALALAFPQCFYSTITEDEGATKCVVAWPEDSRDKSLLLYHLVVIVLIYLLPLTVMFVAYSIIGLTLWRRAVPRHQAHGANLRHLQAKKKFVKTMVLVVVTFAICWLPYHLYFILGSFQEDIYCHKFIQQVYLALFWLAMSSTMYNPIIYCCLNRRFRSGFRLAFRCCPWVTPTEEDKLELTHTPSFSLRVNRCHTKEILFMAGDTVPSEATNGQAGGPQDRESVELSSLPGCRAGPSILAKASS
Put plainly: Antagonist activity at NK2 receptor in Dunkin-Hartley guinea pig colon smooth muscle assessed as inhibition of [beta-Ala8]NKA(4-10)-induced tissue contraction in presence of NK1 receptor antagonist SR-140333. It counts as functional, tissue-based.

Series [3] in a line: Apparent permeability from apical to basolateral side of human Caco-2 cells at 100 uM.
In a further series the test system is Cavia porcellus. As to the kind of experiment: Inhibition of [beta-Ala8]NKA(4-10)-induced colonic contractions in Dunkin-Hartley guinea pig at 3 umol/kg, iv after 4 hrs relative to control. Format: functional.
Series [4] addresses T1, Substance-K receptor. Put plainly: Antagonist activity at NK2 receptor in human urinary bladder assessed as inhibition of [beta-Ala8]NKA(4-10)-induced tissue contractions. The settings on record: read-out: pA2 (converted). It counts as functional.
Another series deals with Homo sapiens. As to the kind of experiment: Inhibition of [beta-Ala8]NKA(4-10)-induced colonic contractions […] at 10 umol/kg, id relative to control. Format: functional, organism-based.

Calls of active or inactive are those of the source. No cut-off for these calls is given here.

In turn, `O=C(NC1(C(=O)N[C@@H](CCCN2CCN(CC3CCOCC3)CC2)Cc2ccccc2)CCCC1)c1cc2ccccc2o1` had a Ki on Substance-K receptor [1] of 0.631 nM. Moreover, the pKb in series [2] worked out at 8.2. For the same compound, the Papp A→B at 100 µM in series [3] came out at 20.2 ×10⁻⁶ cm/s. In the series with Cavia porcellus, the Imax was found to be 65%.
For `Cc1ccc2cc(C(=O)NC3(C(=O)N[C@@H](CCCN4CCN(CC5CCOCC5)CC4)Cc4ccccc4)CCCC3)sc2c1`, the pKb in series [2] is 8.6. Besides, the Papp A→B at 100 µM in series [3] stood at 11.2 ×10⁻⁶ cm/s. The Imax in the series with Cavia porcellus came out at 100%. Moreover, at Substance-K receptor [4], the Kb was 0.2 nM. Moreover, the result in the series with Homo sapiens was Active.
The compound `O=C(NC1(C(=O)N[C@@H](CCCN2CCN(CC3CCOCC3)CC2)Cc2ccccc2)CCCC1)c1ccc(-c2ccccc2)cc1` showed a Ki at Substance-K receptor [1] of 0.501 nM. Further, in series [2], the pKb was found to be 8.7. For the same compound, in series [3], the Papp A→B at 100 µM came to 13.6 ×10⁻⁶ cm/s. The same compound showed an Imax in the series with Cavia porcellus of 86%.
As for `O=C(NC1(C(=O)N[C@@H](CCCN2CCN(CC3CCOCC3)CC2)Cc2ccccc2)CCCC1)c1ccc2ccccc2c1`, affinity on Substance-K receptor [1] was put at a Ki of 0.316 nM. Besides, the pKb in series [2] stood at 8.2. Moreover, in series [3], the Papp A→B at 100 µM is 14.6 ×10⁻⁶ cm/s.
At Substance-K receptor [1], `COc1ccc2oc(C(=O)NC3(C(=O)N[C@@H](CCCN4CCN(CC5CCOCC5)CC4)Cc4ccccc4)CCCC3)cc2c1` gave a Ki of 0.631 nM. In addition, in series [2], the pKb stood at 7.4. The Papp A→B at 100 µM in series [3] was determined as 8.6 ×10⁻⁶ cm/s. This compound also registered an Imax in the series on Cavia porcellus of 98%.
With `O=C(NC1(C(=O)N[C@@H](CCCN2CCN(CC3CCOCC3)CC2)Cc2ccccc2)CCCC1)c1cc2cc(Cl)ccc2o1`, the Ki at Substance-K receptor [1] was 0.251 nM. The pKb in series [2] amounted to 7.6. The Papp A→B at 100 µM in series [3] worked out at 13.7 ×10⁻⁶ cm/s. Also, the Imax with Cavia porcellus was determined as 100%.
The matching figures for `Cc1ccc(-c2ccc(C(=O)NC3(C(=O)N[C@@H](CCCN4CCN(CC5CCOCC5)CC4)Cc4ccccc4)CCCC3)cc2)cc1`: 0.631 nM, 7.8, 7.1 ×10⁻⁶ cm/s and 60%.
The compound `Cc1ccc2cc(C(=O)NC3(C(=O)N[C@@H](CCCN4CCN(Cc5nnn(C)n5)CC4)Cc4ccccc4)CCCC3)sc2c1` showed a Ki on Substance-K receptor [1] of 0.316 nM. Besides, the pKb in series [2] turned out to be 7.9. In the series with Cavia porcellus, the Imax was 72%.
On Substance-K receptor [1], `Cc1ccc2cc(C(=O)NC3(C(=O)N[C@@H](COCC4CCN(CC5CCOCC5)CC4)Cc4ccccc4)CCCC3)sc2c1` had a Ki of 0.631 nM. Besides, the pKb in series [2] is 7.6. In the series with Cavia porcellus, this compound had an Imax of 46%.

One may read the Ki as the equilibrium dissociation constant of an inhibitor or competing ligand from its target. High values mean a looser hold on the target, low ones a stronger hold on the target. For orientation: pKb means the negative decadic logarithm of the Kb, by convention in mol/L. As usually defined, the Papp A→B is how fast a substance crosses the layer from the apical side.
